Values of other authors in PubChem BioAssay AID1259409 (Chemical Carcinogenesis Research Information System (CCRIS), 2018).
Where “and” joins values, the source holds several entries; their conditions need not be identical. Identical values can stand only once.

Tested on: rodent chemically induced tumor inhibition, incidence and multiplicity
Experiment: CCRIS tumor inhibitor studies
Settings: Promoter: NONE USED

CCOc1ccc2c(c1)C(C)=CC(C)(C)N2
tumour outcome (control, treated, inhibition, significance) (Carcinogen: 1,2-DIMETHYLHYDRAZINE, 540-73-8, Dose [Inhibitor]: 0, 0.8% IN DIET BEGINNING 1 WK POST LAST CARCINOGEN DOSE AND CONTINUING FOR 36 WK (STUDY DURATION: 40 WK), Route [Inhibitor]: ORAL, Species: RAT, Strain/Sex: F344/MALE, Target Tissue: Type of Lesion: COLON: ADENOMA, Dose [Carcinogen]: 20 MG/KG 1/WK FOR 4 WK): 1/20 (5%), 4/18 (22%), -340%, not calculated | tumour outcome (control, treated, inhibition, significance) (Carcinogen: 1,2-DIMETHYLHYDRAZINE, 540-73-8, Dose [Inhibitor]: 0, 0.8% IN DIET BEGINNING 1 WK POST LAST CARCINOGEN DOSE AND CONTINUING FOR 36 WK (STUDY DURATION: 40 WK), Route [Inhibitor]: ORAL, Species: RAT, Strain/Sex: F344/MALE, Target Tissue: Type of Lesion: COLON: CARCINOMA, Dose [Carcinogen]: 20 MG/KG 1/WK FOR 4 WK): 6/20 (30%), 7/18 (39%), -30%, not calculated | tumour outcome (control, treated, inhibition, significance) (Carcinogen: 7,12-DIMETHYLBENZ[A]ANTHRACENE, 57-97-6, Dose [Inhibitor]: 200 MG IN 1 ML OLIVE OIL ONCE (STUDY DURATION: 18 WK), Route [Inhibitor]: GAVAGE, Species: RAT, Strain/Sex: SPRAGUE-DAWLEY/FEMALE, Target Tissue: Type of Lesion: MAMMARY GLAND: TUMOR, Dose [Carcinogen]: 12 MG IN 1 ML OLIVE OIL ADMINISTERED 1 HR AFTER INHIBITOR): 27/34 (79%), 2/17 (12%), 85%, p<0.01 | tumour outcome (control, treated, inhibition, significance) (Carcinogen: CIPROFIBRATE, 52214-84-3, Dose [Inhibitor]: 0.5% IN DIET FOR 60 WK (STUDY DURATION: 60 WK), Route [Inhibitor]: ORAL, Species: RAT, Strain/Sex: F344/MALE, Target Tissue: Type of Lesion: LIVER: TUMOR, Dose [Carcinogen]: 10 MG/KG BODY WEIGHT IN DIET SIMULTANEOUSLY WITH INHIBITOR FOR 60 WK): 21/25 (84%), 7/24 (29%), 65%, p<0.005 and 22/25 (88%), 4/24 (17%), 81%, p<0.005 | tumour outcome (control, treated, inhibition, significance) (Carcinogen: N-BIS(2-HYDROXYPROPYL)NITROSAMINE, 53609-64-6, Dose [Inhibitor]: 0, 0.8% IN DIET FOR 30 WK BEGINNING POST CARCINOGEN TREATMENT (STUDY DURATION: 32 WK0, Route [Inhibitor]: ORAL, Species: RAT, Strain/Sex: F344/MALE, Target Tissue: Type of Lesion: THYROID: ADENOMA, Dose [Carcinogen]: 0.1% IN DRINKING WATER FOR 2 WK): 1/20 (5%), 19/20 (95%), -1800%, p<0.001 | tumour outcome (control, treated, inhibition, significance) (Carcinogen: N-BIS(2-HYDROXYPROPYL)NITROSAMINE, 53609-64-6, Dose [Inhibitor]: 0, 0.8% IN DIET FOR 30 WK BEGINNING POST CARCINOGEN TREATMENT (STUDY DURATION: 32 WK), Route [Inhibitor]: ORAL, Species: RAT, Strain/Sex: F344/MALE, Target Tissue: Type of Lesion: BLADDER: ADENOMA, Dose [Carcinogen]: 0.1% IN DRINKING WATER FOR 2 WK): 5%, 5%, 0%, not significant | tumour outcome (control, treated, inhibition, significance) (Carcinogen: N-BIS(2-HYDROXYPROPYL)NITROSAMINE, 53609-64-6, Dose [Inhibitor]: 0, 0.8% IN DIET FOR 30 WK BEGINNING POST CARCINOGEN TREATMENT (STUDY DURATION: 32 WK), Route [Inhibitor]: ORAL, Species: RAT, Strain/Sex: F344/MALE, Target Tissue: Type of Lesion: KIDNEY: TUMOR, Dose [Carcinogen]: 0.1% IN DRINKING WATER FOR 2 WK): 10%, 30%, -200%, not calculated | tumour outcome (control, treated, inhibition, significance) (Carcinogen: N-BIS(2-HYDROXYPROPYL)NITROSAMINE, 53609-64-6, Dose [Inhibitor]: 0, 0.8% IN DIET FOR 30 WK BEGINNING POST CARCINOGEN TREATMENT (STUDY DURATION: 32 WK), Route [Inhibitor]: ORAL, Species: RAT, Strain/Sex: F344/MALE, Target Tissue: Type of Lesion: LUNG: ADENOMA, Dose [Carcinogen]: 0.1% IN DRINKING WATER FOR 2 WK): 100%, 95%, 5%, not calculated | tumour outcome (control, treated, inhibition, significance) (Carcinogen: N-BIS(2-HYDROXYPROPYL)NITROSAMINE, 53609-64-6, Dose [Inhibitor]: 0, 0.8% IN DIET FOR 30 WK BEGINNING POST CARCINOGEN TREATMENT (STUDY DURATION: 32 WK), Route [Inhibitor]: ORAL, Species: RAT, Strain/Sex: F344/MALE, Target Tissue: Type of Lesion: LUNG: CARCINOMA, Dose [Carcinogen]: 0.1% IN DRINKING WATER FOR 2 WK): 45%, 15%, 67%, p<0.05 | tumour outcome (control, treated, inhibition, significance) (Carcinogen: N-BIS(2-HYDROXYPROPYL)NITROSAMINE, 53609-64-6, Dose [Inhibitor]: 0, 0.8% IN DIET FOR 30 WK BEGINNING POST CARCINOGEN TREATMENT (STUDY DURATION: 32 WK), Route [Inhibitor]: ORAL, Species: RAT, Strain/Sex: F344/MALE, Target Tissue: Type of Lesion: THYROID: ADENOMA, Dose [Carcinogen]: 0.1% IN DRINKING WATER FOR 2 WK): 5%, 95%, -1800%, p<0.001 | tumour outcome (control, treated, inhibition, significance) (Carcinogen: N-BIS(2-HYDROXYPROPYL)NITROSAMINE, 53609-64-6, Dose [Inhibitor]: 0, 0.8% IN DIET FOR 30 WK BEGINNING POST CARCINOGEN TREATMENT (STUDY DURATION: 32 WK), Route [Inhibitor]: ORAL, Species: RAT, Strain/Sex: F344/MALE, Target Tissue: Type of Lesion: THYROID: CARCINOMA, Dose [Carcinogen]: 0.1% IN DRINKING WATER FOR 2 WK): 20%, 50%, -150%, not calculated | outcome (Carcinogen: N-ETHYL-N-HYDROXYETHYLNITROSAMINE, 13147-25-6, Dose [Inhibitor]: 0.8% IN DIET BEGINNING 1 WK AFTER LAST CARCINOGEN TREATMENT AND CONTINUING THROUGH DURATION OF STUDY (STUDY DURATION: 32, Route [Inhibitor]: ORAL, Species: RAT, Strain/Sex: F344/MALE, Target Tissue: Type of Lesion: KIDNEY: ADENOCARCINOMA, Dose [Carcinogen]: 0.1% IN DRINKING WATER FOR 2 WK AT BEGINNING OF STUDY): 0/23 (0%), 3/27 (11%), -11%, not significant | tumour outcome (control, treated, inhibition, significance) (Carcinogen: N-ETHYL-N-HYDROXYETHYLNITROSAMINE, 13147-25-6, Dose [Inhibitor]: 0.8% IN DIET BEGINNING 1 WK AFTER LAST CARCINOGEN TREATMENT AND CONTINUING THROUGH DURATION OF STUDY (STUDY DURATION: 32, Route [Inhibitor]: ORAL, Species: RAT, Strain/Sex: F344/MALE, Target Tissue: Type of Lesion: KIDNEY: ADENOMA, Dose [Carcinogen]: 0.1% IN DRINKING WATER FOR 2 WK AT BEGINNING OF STUDY): 5/23 (22%), 17/27 (63%), -186%, p<0.001 | tumour outcome (control, treated, inhibition, significance) (Carcinogen: N-ETHYL-N-HYDROXYETHYLNITROSAMINE, 13147-25-6, Dose [Inhibitor]: 0.8% IN DIET BEGINNING 1 WK AFTER LAST CARCINOGEN TREATMENT AND CONTINUING THROUGH DURATION OF STUDY (STUDY DURATION: 32, Route [Inhibitor]: ORAL, Species: RAT, Strain/Sex: F344/MALE, Target Tissue: Type of Lesion: LIVER: HEPATOCELLULAR CARCINOMA, Dose [Carcinogen]: 0.1% IN DRINKING WATER FOR 2 WK AT BEGINNING OF STUDY): 11/23 (48%), 3/27 (11%), 77%, p<0.05 | tumour outcome (control, treated, inhibition, significance) (Carcinogen: URETHANE, 51-79-6, Dose [Inhibitor]: 0.75% IN DIET 1/WK FOR 24 HR AFTER OVERNIGHT FAST TREATMENT REPEATED FOR 8 CONSECUTIVE WK BEGINNING 1 D AFTER CARCINOGEN, Route [Inhibitor]: ORAL, Species: MOUSE, Strain/Sex: STRAIN A/MALE, Target Tissue: Type of Lesion: LUNG: TYPE II ALVEOLAR CELL TUMORS, CLARA CELL TUMORS, Dose [Carcinogen]: 500 MG/KG ONCE AT 8 WK OF AGE): 100%, 100%, 0%, not significant | tumour outcome (control, treated, inhibition, significance) (Dose [Inhibitor]: 0.05% DIET FOR 2 WK STARTING 2 WK PRIOR TO START OF CARCINOGEN TREATMENT (STUDY DURATION: 48 WK), Route [Inhibitor]: ORAL, Species: RAT, Strain/Sex: F344/MALE, Target Tissue: Type of Lesion: LIVER: CELL TUMOR, Dose [Carcinogen]: 4 PPM IN DIET DAILY FOR 6 WK): 3/11 (27%), 1/15 (7%), 74%, not calculated | tumour outcome (control, treated, inhibition, significance) (Dose [Inhibitor]: 0.05% IN DIET FOR 2 WK STARTING 2 WK PRIOR TO INITIATION OF CARCINOGEN TREATMENT (STUDY DURATION: 48 WK), Route [Inhibitor]: ORAL, Species: RAT, Strain/Sex: F344/MALE, Target Tissue: Type of Lesion: LIVER: LIVER CELL TUMOR, Dose [Carcinogen]: 4 PPM IN DIET FOR 6 WK FOLLOWED BY 40 WK ON CONTROL DIET): 3/11 (27%), 1/12 (8%), 70%, not calculated | tumour outcome (control, treated, inhibition, significance) (Dose [Inhibitor]: 0.5% DIET FOR 2 WK STARTING 2 WK PRIOR TO START OF CARCINOGEN TREATMENT (STUDY DURATION: 48 WK), Route [Inhibitor]: ORAL, Species: RAT, Strain/Sex: F344/MALE, Target Tissue: Type of Lesion: LIVER: CELL TUMOR, Dose [Carcinogen]: 4 PPM IN DIET DAILY FOR 6 WK): 3/11 (27%), 0/15 (0%), 100%, not calculated | tumour outcome (control, treated, inhibition, significance) (Dose [Inhibitor]: 0.5% DIET FOR 2 WK STARTING POST CARCINOGEN TREATMENT AND FOLLOWED BY 40 WK ON CONTROL DIET (STUDY DURATION: 48 WK), Route [Inhibitor]: ORAL, Species: RAT, Strain/Sex: F344/MALE, Target Tissue: Type of Lesion: LIVER: CELL TUMOR, Dose [Carcinogen]: 4 PPM DIET DAILY FOR 6 WK): 3/11 (27%), 3/15 (20%), 26%, not significant | tumour outcome (control, treated, inhibition, significance) (Dose [Inhibitor]: 0.5% DIET FOR 6 WK ADMINISTERED CONCURRENTLY WITH CARCINOGEN TREATMENT FOLLOWED BY 42 WK ON CONTROL DIET (STUDY DURATION, Route [Inhibitor]: ORAL, Species: RAT, Strain/Sex: F344/MALE, Target Tissue: Type of Lesion: LIVER: CELL TUMOR, Dose [Carcinogen]: 4 PPM DIET DAILY FOR 6 WK): 3/11 (27%), 0/15 (0%), 100%, not calculated | tumour outcome (control, treated, inhibition, significance) (Dose [Inhibitor]: 0.5% IN DIET FOR 2 WK STARTING 2 WK PRIOR TO INITIATION OF CARCINOGEN (STUDY DURATION: 48 WK), Route [Inhibitor]: ORAL, Species: RAT, Strain/Sex: F344/MALE, Target Tissue: Type of Lesion: LIVER: LIVER CELL TUMOR, Dose [Carcinogen]: 4 PPM IN DIET FOR 6 WK FOLLOWED BY 40 WK ON CONTROL DIET): 3/11 (27%), 0/15 (0%), 100%, not calculated | tumour outcome (control, treated, inhibition, significance) (Dose [Inhibitor]: 0.5% IN DIET FOR 6 WK ADMINISTERED SIMULTANEOUSLY WITH CARCINOGEN FOLLOWED BY 42 WK ON CONTROL DIET (STUDY DURATION: 48, Route [Inhibitor]: ORAL, Species: RAT, Strain/Sex: F344/MALE, Target Tissue: Type of Lesion: LIVER: LIVER CELL TUMOR, Dose [Carcinogen]: 4 PPM IN DIET FOR 6 WK): 3/11 (20%), 0/9 (0%), 100%, not calculated
